{"source": "ChEMBL document CHEMBL1141655", "about": "“Structure-activity relationships of Bak derived peptides: affinity and specificity modulations by amino acid replacement” (Eur J Med Chem, 2008)", "note": "pEC50: −log10 of the molar value. Non-standard residues stand in square brackets, D forms with d. Residues, ends and D or L forms follow the SMILES beside them. 2Nal = N[C@@H](Cc1ccc2ccccc2c1)C(=O)O"}
{"target": "Bcl-2-like protein 1 (Homo sapiens, UniProt Q07817)", "sequence (Q07817 whole entry)": "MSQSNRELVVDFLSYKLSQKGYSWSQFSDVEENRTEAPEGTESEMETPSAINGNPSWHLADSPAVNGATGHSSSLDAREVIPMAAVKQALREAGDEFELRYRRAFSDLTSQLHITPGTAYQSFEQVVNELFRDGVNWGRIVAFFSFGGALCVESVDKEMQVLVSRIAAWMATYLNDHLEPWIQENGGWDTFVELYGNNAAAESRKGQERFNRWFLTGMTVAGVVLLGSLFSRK", "assay": "Binding affinity to recombinant Bcl-XL expressed in Escherichia coli BL21 by fluorescence polarization assay"}
{"smiles": "CC[C@H](C)[C@H](NC(=O)[C@H](C)NC(=O)[C@H](CC(C)C)NC(=O)[C@H](CCC(N)=O)NC(=O)[C@H](CCCN=C(N)N)NC(=O)CNC(=O)[C@@H](NC(=O)[C@H](CCC(N)=O)NC(=O)CN)C(C)C)C(=O)N[C@H](C(=O)NCC(=O)N[C@@H](CC(=O)O)C(=O)N[C@@H](CC(=O)O)C(=O)N[C@@H](C)C(=O)N[C@@H](CC(N)=O)C(=O)N[C@@H](CCCN=C(N)N)C(=O)O)[C@@H](C)CC", "pEC50": 4.03}
{"smiles": "CC[C@H](C)[C@H](NC(=O)[C@H](C)NC(=O)[C@H](CC(C)C)NC(=O)[C@H](CCC(N)=O)NC(=O)[C@H](CCCN=C(N)N)NC(=O)CNC(=O)[C@@H](NC(=O)[C@H](CCC(N)=O)NC(=O)CN)C(C)C)C(=O)N[C@H](C(=O)NCC(=O)N[C@@H](CC(=O)O)C(=O)N[C@@H](CC(=O)O)C(=O)N[C@@H](Cc1ccc(I)cc1)C(=O)N[C@@H](CC(N)=O)C(=O)N[C@@H](CCCN=C(N)N)C(=O)O)[C@@H](C)CC", "pEC50": 7.35}
{"smiles": "CC[C@H](C)[C@H](NC(=O)[C@H](C)NC(=O)[C@H](CC(C)C)NC(=O)[C@H](CCC(N)=O)NC(=O)[C@H](CCCNC(=N)N)NC(=O)CNC(=O)[C@@H](NC(=O)[C@H](CCC(N)=O)NC(=O)CN)C(C)C)C(=O)N[C@@H](C)C(=O)NCC(=O)N[C@@H](CC(=O)O)C(=O)N[C@@H](CC(=O)O)C(=O)N[C@H](C(=O)N[C@@H](CC(N)=O)C(=O)N[C@@H](CCCNC(=N)N)C(=O)O)[C@@H](C)CC", "pEC50": 4.77}
{"smiles": "CC[C@H](C)[C@H](NC(=O)[C@H](C)NC(=O)[C@H](CC(C)C)NC(=O)[C@H](CCC(N)=O)NC(=O)[C@H](CCCN=C(N)N)NC(=O)CNC(=O)[C@@H](NC(=O)[C@H](CCC(N)=O)NC(=O)CN)C(C)C)C(=O)N[C@@H](Cc1cccc2ccccc12)C(=O)NCC(=O)N[C@@H](CC(=O)O)C(=O)N[C@@H](CC(=O)O)C(=O)N[C@H](C(=O)N[C@@H](CC(N)=O)C(=O)N[C@@H](CCCN=C(N)N)C(=O)O)[C@@H](C)CC", "pEC50": 6.52}
{"smiles": "CC[C@H](C)[C@H](NC(=O)[C@H](C)NC(=O)[C@H](CC(C)C)NC(=O)[C@H](CCC(N)=O)NC(=O)[C@H](CCCNC(=N)N)NC(=O)CNC(=O)[C@@H](NC(=O)[C@H](CCC(N)=O)NC(=O)CN)C(C)C)C(=O)N[C@H](C(=O)NCC(=O)N[C@@H](CC(=O)O)C(=O)N[C@@H](CC(=O)O)C(=O)N[C@@H](Cc1cnc[nH]1)C(=O)N[C@@H](CC(N)=O)C(=O)N[C@@H](CCCNC(=N)N)C(=O)O)[C@@H](C)CC", "pEC50": 5.29}
{"smiles": "CC[C@H](C)[C@H](NC(=O)[C@H](C)NC(=O)[C@H](Cc1ccc2ccccc2c1)NC(=O)[C@H](CCC(N)=O)NC(=O)[C@H](CCCNC(=N)N)NC(=O)CNC(=O)[C@@H](NC(=O)[C@H](CCC(N)=O)NC(=O)CN)C(C)C)C(=O)N[C@H](C(=O)NCC(=O)N[C@@H](CC(=O)O)C(=O)N[C@@H](CC(=O)O)C(=O)N[C@@H](Cc1ccccc1)C(=O)N[C@@H](CC(N)=O)C(=O)N[C@@H](CCCNC(=N)N)C(=O)O)[C@@H](C)CC", "note": "(H-GQVGRQ[2Nal]AIIGDDFNR-OH)", "pEC50": 7.27}
{"smiles": "CC[C@H](C)[C@H](NC(=O)[C@H](CC(=O)O)NC(=O)[C@H](CC(=O)O)NC(=O)CNC(=O)[C@H](Cc1ccc(O)cc1)N(C)C(=O)[C@@H](NC(=O)[C@H](C)NC(=O)[C@H](CC(C)C)NC(=O)[C@H](CCC(N)=O)NC(=O)[C@H](CCCNC(=N)N)NC(=O)CNC(=O)[C@@H](NC(=O)[C@H](CCC(N)=O)NC(=O)CN)C(C)C)[C@@H](C)CC)C(=O)N[C@@H](CC(N)=O)C(=O)N[C@@H](CCCNC(=N)N)C(=O)O", "pEC50": 5.44}
{"smiles": "CC[C@H](C)[C@H](NC(=O)[C@H](C)NC(=O)[C@H](Cc1ccccc1)NC(=O)[C@H](CCC(N)=O)NC(=O)[C@H](CCCN=C(N)N)NC(=O)CNC(=O)[C@@H](NC(=O)[C@H](CCC(N)=O)NC(=O)CN)C(C)C)C(=O)N[C@H](C(=O)NCC(=O)N[C@@H](CC(=O)O)C(=O)N[C@@H](CC(=O)O)C(=O)N[C@H](C(=O)N[C@@H](CC(N)=O)C(=O)N[C@@H](CCCN=C(N)N)C(=O)O)[C@@H](C)CC)[C@@H](C)CC", "pEC50": 6.39}
